Source: PubChem BioAssay AID1963963 (Molecular Pharmacology Branch, DTP, NCI, 2024)
Where “and” joins values, the source holds several entries; their conditions need not be identical. Identical values can stand only once.

System: 958667-338-R-J2-PDC tumor spheroids viability
Test: Anticancer human tumor 958667-338-R-J2-PDC patient-derived colon adenocarcinoma cell line growth inhibition [PI3K]
Conditions: spheroids with HUVEC and MSC; for viability, T/C: stronger effect = lower value
Procedure, shortened: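 Tumor cells grown as multi-cell spheroids with HUVEC endothelial cells and MSC fibroblast-like stroma were treated with targeted agents combined with inavolisib, alpelisib, duvelisib or copanlisib. Doses fell in half-log steps from near clinical Cmax, else from 10 microM. Viability was measured.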

[1] = curve of first compound, second compound 0.00316 µM
[2] = curve of first compound, second compound 0.01 µM
[3] = curve of first compound, second compound 0.0316 µM
[4] = curve of first compound, second compound 0.1 µM
[5] = curve of first compound, second compound 0.316 µM
[6] = curve of first compound, second compound 1 µM
[7] = second compound 0.00316 µM, first compound 0.0316 µM
[8] = second compound 0.00316 µM, first compound 0.1 µM
[9] = second compound 0.00316 µM, first compound 0.316 µM
[10] = second compound 0.00316 µM, first compound 1 µM
[11] = second compound 0.00316 µM, first compound 3.16 µM
[12] = second compound 0.00316 µM, first compound 10 µM
[13] = second compound 0.01 µM, first compound 0.0316 µM
[14] = second compound 0.01 µM, first compound 0.1 µM
[15] = second compound 0.01 µM, first compound 0.316 µM
[16] = second compound 0.01 µM, first compound 1 µM
[17] = second compound 0.01 µM, first compound 3.16 µM
[18] = second compound 0.01 µM, first compound 10 µM
[19] = second compound 0.0316 µM, first compound 0.0316 µM
[20] = second compound 0.0316 µM, first compound 0.1 µM
[21] = second compound 0.0316 µM, first compound 0.316 µM
[22] = second compound 0.0316 µM, first compound 1 µM
[23] = second compound 0.0316 µM, first compound 3.16 µM
[24] = second compound 0.0316 µM, first compound 10 µM
[25] = second compound 0.1 µM, first compound 0.0316 µM
[26] = second compound 0.1 µM, first compound 0.1 µM
[27] = second compound 0.1 µM, first compound 0.316 µM
[28] = second compound 0.1 µM, first compound 1 µM
[29] = second compound 0.1 µM, first compound 3.16 µM
[30] = second compound 0.1 µM, first compound 10 µM
[31] = second compound 0.316 µM, first compound 0.0316 µM
[32] = second compound 0.316 µM, first compound 0.1 µM
[33] = second compound 0.316 µM, first compound 0.316 µM
[34] = second compound 0.316 µM, first compound 1 µM
[35] = second compound 0.316 µM, first compound 3.16 µM
[36] = second compound 0.316 µM, first compound 10 µM
[37] = second compound 1 µM, first compound 0.0316 µM
[38] = second compound 1 µM, first compound 0.1 µM
[39] = second compound 1 µM, first compound 0.316 µM
[40] = second compound 1 µM, first compound 1 µM
[41] = second compound 1 µM, first compound 3.16 µM
[42] = second compound 1 µM, first compound 10 µM
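Note: spheroids exposed to compounds for seven days before readout.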

Work on `Cn1nccc1Nc1nccc(-c2ccn(C(CO)c3ccc(Cl)c(F)c3)c(=O)c2)n1` (stereo unspecified) + CC(Nc1ccc2c(c1)OCCn1cc(N3C(=O)OCC3C(F)F)nc1-2)C(N)=O yielded an IC50 [1] greater than 10 µM, an IC50 [2] of 9.95 µM and an IC50 [3] greater than 10 µM. It also gave an IC50 [4] of 6.57 µM, an IC50 [5] of 2.11 µM and an IC50 [6] of 2.14 µM. The viability, T/C [7] was 91.7%, the viability, T/C [8] was 81.7% and the viability, T/C [9] was 112%. The viability, T/C [10] was 104%, the viability, T/C [11] was 78.7% and the viability, T/C [12] was 69.7%. For the same compound, the viability, T/C [13] was 108%, the viability, T/C [14] was 104% and the viability, T/C [15] was 105%. The viability, T/C [16] was 102%, the viability, T/C [17] was 75.8% and the viability, T/C [18] was 49.9%. The viability, T/C [19] was 101%, the viability, T/C [20] was 86.4% and the viability, T/C [21] was 92.4%. The viability, T/C [22] was 104%, the viability, T/C [23] was 75.7% and the viability, T/C [24] was 74.3%. The viability, T/C [25] was 102%, the viability, T/C [26] was 77.5% and the viability, T/C [27] was 102%. For the same compound, the viability, T/C [28] was 90.1%, the viability, T/C [29] was 87.4% and the viability, T/C [30] was 28.6%. It also gave a viability, T/C [31] of 81.5%, a viability, T/C [32] of 88.9% and a viability, T/C [33] of 86%. It also gave a viability, T/C [34] of 64.6%, a viability, T/C [35] of 41.9% and a viability, T/C [36] of 16.9%. The viability, T/C [37] was 67%, the viability, T/C [38] was 64% and the viability, T/C [39] was 70.6%. For the same compound, the viability, T/C [40] was 53.6%, the viability, T/C [41] was 47.6% and the viability, T/C [42] was 6.4%.

In the case of `CC(C)NCC(C(=O)N1CCN(c2ncnc3c2C(C)CC3O)CC1)c1ccc(Cl)cc1` (stereo unspecified), the viability, T/C (compound 0.0316 µM) is reported as 99.2% and 102% and 101%, the viability, T/C (compound 0.1 µM) is reported as 92.6% and 114% and 87.9% and the viability, T/C (compound 0.316 µM) is reported as 101% and 113% and 108%. The viability, T/C (compound 1 µM) was 78.6% and 73.4% and 101%, the viability, T/C (compound 3.16 µM) was 78.8% and 72.3% and 119% and the viability, T/C (compound 10 µM) was 72.2% and 69.7% and 80.9%. The IC50 (curve of compound) was greater than 10 µM.

`CCCS(=O)(=O)Nc1ccc(F)c(C(=O)c2c[nH]c3ncc(-c4ccc(Cl)cc4)cc23)c1F` + COc1c(OCCCN2CCOCC2)ccc2c3n(c(=NC(=O)c4cnc(N)nc4)nc12)CCN3 gave an IC50 [1] of 5.88 µM, an IC50 [2] of 6.02 µM and an IC50 [3] of 4.97 µM. For the same compound, the IC50 [4] was 4.08 µM, the IC50 [5] was less than 0.0316 µM and the IC50 [6] was less than 0.0316 µM. For the same compound, the viability, T/C [7] was 126%, the viability, T/C [8] was 93.4% and the viability, T/C [9] was 94.4%. For the same compound, the viability, T/C [10] was 109%, the viability, T/C [11] was 99.5% and the viability, T/C [12] was 7.46%. The viability, T/C [13] was 89.1%, the viability, T/C [14] was 93.7% and the viability, T/C [15] was 111%. The viability, T/C [16] was 84.8%, the viability, T/C [17] was 110% and the viability, T/C [18] was 12.4%. For the same compound, the viability, T/C [19] was 63%, the viability, T/C [20] was 67.5% and the viability, T/C [21] was 74.5%. For the same compound, the viability, T/C [22] was 74.5%, the viability, T/C [23] was 103% and the viability, T/C [24] was 8.73%. The viability, T/C [25] was 67.4%, the viability, T/C [26] was 52.2% and the viability, T/C [27] was 61.7%. The viability, T/C [28] was 61.8%, the viability, T/C [29] was 63.2% and the viability, T/C [30] was 10.3%. The viability, T/C [31] was 31.6%, the viability, T/C [32] was 49.6% and the viability, T/C [33] was 38.3%. For the same compound, the viability, T/C [34] was 32.2%, the viability, T/C [35] was 37.5% and the viability, T/C [36] was 6.35%. For the same compound, the viability, T/C [37] was 19%, the viability, T/C [38] was 23.5% and the viability, T/C [39] was 16.7%. For the same compound, the viability, T/C [40] was 20.8%, the viability, T/C [41] was 19.2% and the viability, T/C [42] was 5.1%.
